One assay deals with BC-1. Nature of the assay: Cell proliferation assay (6 days, CellTiter-Glo). It is filed as cell-based. The conditions noted are these: Homo sapiens, BC1, 144 h, AIDS-BCBL, EZH2 WT, read-out: AVERAGE GROWTH IC50. The source says:
(§1) Thus, Example 22 and Table 6 better reflect the inhibition of HZH2 inhibitors on cell lines, e.g. the lymphoma cell lines. DLBCL cell lines were the most sensitive to EZH2 inhibition (FIG. 11a). […] Evaluation of GSK126 in additional lymphoma cell lines and extensive genomic and epigenomic characterization will be required to fully elucidate the determinants of sensitivity among lymphoma subtypes.
(§2) Biochemical assays utilized the 5-member PRC2 complex (human Flag-EZH2, EED, SUZ12, AEBP2, RbAp48) containing either WT or mutant EZH2, [^3H-]SAM and the indicated peptide substrate; reactions were incubated for 30 minutes. Global histone modification levels were determined by ELISA or western blot methods using antibodies specific for total histone H3, H3K27me1, H3K27me2, or H3K27me3. Cell proliferation and Caspase-3/7 activity were assessed using CellTiter-Glo and Caspase-Glo 3/7 (Promega), respectively. Gene expression profiling was conducted using Affymetrix Human Genome U133 Plus 2.0 microarrays. Differentially-expressed probe sets were determined by fitting the data to a linear model using the limma statistical package (http://www.bioconductor.org) and carrying out pair-wise contrasts of treated versus control. Significant probe sets were filtered for detection (log2 signal threshold of 8), an average fold-change >2 or <−2, or >1.5 or <−1.5, where indicated, with p-values adjusted for multiple testing correction by FDR (Benjamini Hochberg)<0.1. H3K27me3 ChIP reads were aligned using Bowtie (56). H3K27me3 enrichment peaks were identified using SICER (57) with optimized parameters. A custom PERL script was utilized to quantify the average basal H3K27me3 ChIP-seq tag density across gene sets. All in vivo studies were conducted after review by the Institutional Animal Care and Use Committee at GSK and in accordance with the GSK Policy on the Care, Welfare and Treatment of Laboratory Animals. GSK126 and vehicle were administered to mice intraperitoneally. Two-tailed t-tests were conducted assuming two samples of equal variance.
(§3) The optimal cell seeding was determined empirically for all cell lines by examining the growth of a wide range of seeding densities in a 384-well format to identify conditions that permitted proliferation for 6 days. […] Plates were incubated for 6 days at 37° C. in 5% CO2. Cells were then lysed with CellTiter-Glo (Promega) and chemiluminescent signal was detected with a TECAN Safire2 microplate reader. In addition, an untreated plate of cells was harvested at the time of compound addition (T0) to quantify the starting number of cells. CTG values obtained after the 6 day treatment were expressed as a percent of the T0 value and plotted against compound concentration.

The next assay relates to BC-2. Nature of the assay: Cell proliferation assay (6 days, CellTiter-Glo). It is filed as cell-based. The conditions noted are these: Homo sapiens, 144 h, AIDS-BCBL, EZH2 WT, read-out: AVERAGE GROWTH IC50.
From the text: as §1, §2, §3

Another assay deals with CRO-AP2. As to the kind of experiment: Cell proliferation assay (6 days, CellTiter-Glo). Format: cell-based. The conditions noted are these: Homo sapiens, 144 h, PEL, AIDS-BCBL, EZH2 WT, read-out: AVERAGE GROWTH IC50.
From the text: as §1, §2, §3

A further assay has as its system DB. Nature of the assay: Cell proliferation assay (6 days, CellTiter-Glo). Format: cell-based. The conditions noted are these: Homo sapiens, 144 h, DLBCL, EZH2 Y641N (HET), read-out: AVERAGE GROWTH IC50.
From the text: as §1, §2, §3

For a further assay, the system named is DG-75. As to the kind of experiment: Cell proliferation assay (6 days, CellTiter-Glo). To be noted: Homo sapiens, 144 h, BURKITT, EZH2 WT, read-out: AVERAGE GROWTH IC50. It is filed as cell-based.
From the text: as §1, §2, §3

Another assay deals with HD-MY-Z. As to the kind of experiment: Cell proliferation assay (6 days, CellTiter-Glo). Format: cell-based. To be noted: Homo sapiens, 144 h, HODGKIN'S, EZH2 WT, read-out: AVERAGE GROWTH IC50.
From the text: as §1, §2, §3

Another assay has as its system HS-SULTAN. As to the kind of experiment: Cell proliferation assay (6 days, CellTiter-Glo). To be noted: Homo sapiens, 144 h, BURKITT, EZH2 WT, read-out: AVERAGE GROWTH IC50. It is filed as cell-based.
From the text: as §1, §2, §3

Another assay deals with KARPAS-1106P. As to the kind of experiment: Cell proliferation assay (6 days, CellTiter-Glo). It is filed as cell-based. The conditions noted are these: Homo sapiens, 144 h, MLBCL, EZH2 E744A (HET), read-out: AVERAGE GROWTH IC50.
From the text: as §1, §2, §3

The subject of the next assay is MHH-PREB-1. As to the kind of experiment: Cell proliferation assay (6 days, CellTiter-Glo). The conditions noted are these: Homo sapiens, 144 h, B-NHL, EZH2 WT, read-out: AVERAGE GROWTH IC50. Format: cell-based.
From the text: as §1, §2, §3

The test system of the next assay is MINO. As to the kind of experiment: Cell proliferation assay (6 days, CellTiter-Glo). It is filed as cell-based. To be noted: Homo sapiens, 144 h, B-NHL, EZH2 D185H (HET), read-out: AVERAGE GROWTH IC50.
From the text: as §1, §2, §3

The subject of another assay is SU-DHL-16. Nature of the assay: Cell proliferation assay (6 days, CellTiter-Glo). To be noted: Homo sapiens, 144 h, B-NHL, EZH2 D185H (HET), read-out: AVERAGE GROWTH IC50. It is filed as cell-based.
From the text: as §1, §2, §3

The subject of another assay is SU-DHL-4. As to the kind of experiment: Cell proliferation assay (6 days, CellTiter-Glo). Format: cell-based. To be noted: Homo sapiens, 144 h, DLBCL, EZH2 Y641S (HET), Y661N (HET), read-out: AVERAGE GROWTH IC50.
From the text: as §1, §2, §3

For another assay, the system named is Toledo. Nature of the assay: Cell proliferation assay (6 days, CellTiter-Glo). It is filed as cell-based. The conditions noted are these: Homo sapiens, 144 h, DLBCL, EZH2 WT, read-out: AVERAGE GROWTH IC50.
From the text: as §1, §2, §3

The next assay relates to WSU-FSCCL. As to the kind of experiment: Cell proliferation assay (6 days, CellTiter-Glo). Format: cell-based. The conditions noted are these: Homo sapiens, 144 h, FL, EZH2 D185H (HET), read-out: AVERAGE GROWTH IC50.
From the text: as §1, §2, §3

A further assay relates to WSU-NHL. As to the kind of experiment: Cell proliferation assay (6 days, CellTiter-Glo). It is filed as cell-based. To be noted: Homo sapiens, 144 h, FL, EZH2 D185H (HET), read-out: AVERAGE GROWTH IC50.
From the text: as §1, §2, §3

Assay [1] concerns H3K27me3 in DLBCL cell lines. As to the kind of experiment: ELISA-based quantitation of H3K27me3 in treated cells. The conditions noted are these: Homo sapiens, EZH2 WT and mutant DLBCL cell lines, 48 hours. The method, then:
Biochemical assays utilized the 5-member PRC2 complex (human Flag-EZH2, EED, SUZ12, AEBP2, RbAp48) containing either WT or mutant EZH2, [^3H-]SAM and the indicated peptide substrate; reactions were incubated for 30 minutes. Global histone modification levels were determined by ELISA or western blot methods using antibodies specific for total histone H3, H3K27me1, H3K27me2, or H3K27me3. Cell proliferation and Caspase-3/7 activity were assessed using CellTiter-Glo and Caspase-Glo 3/7 (Promega), respectively. Gene expression profiling was conducted using Affymetrix Human Genome U133 Plus 2.0 microarrays. Differentially-expressed probe sets were determined by fitting the data to a linear model using the limma statistical package (http://www.bioconductor.org) and carrying out pair-wise contrasts of treated versus control. […] H3K27me3 ChIP reads were aligned using Bowtie (56). […] A custom PERL script was utilized to quantify the average basal H3K27me3 ChIP-seq tag density across gene sets. […]
Following tissue homogenization, tumor tissue lysates were prepared using the Epigentek Histone Extraction kit (OP-0006). […] Luminata Forte substrate (Millipore) was added 5 minutes before chemiluminescence was quantified with an EnVision multi-label plate reader (PerkinElmer). H3K27me3 levels were normalized to total H3 values and IC50 values were determined using a 4-parameter curve fit.

On to `CC[C@H](C)n1cc(C)c2c(C(=O)NCc3c(C)cc(C)[nH]c3=O)cc(-c3ccc(N4CCNCC4)nc3)cc21` [GSK126], for which the half-inhibitory concentration (IC50) with BC-1 stood at 8.29 µM; with BC-2 it was 4.76 µM; in the assay with CRO-AP2, 1.64 µM; in the assay with DB, 0.861 µM; in the assay on DG-75 it was 3.25 µM; in the assay on HD-MY-Z, 10.7 µM. The IC50 in the assay on HS-SULTAN came to 2.27 µM; with KARPAS-1106P, 4.54 µM; in the assay on MHH-PREB-1, 5.3 µM; in the assay on MINO it was 7.34 µM; with SU-DHL-16, 3.28 µM; in the assay with SU-DHL-4, 4.83 µM. The concentration for half-maximal inhibition (IC50) in the assay with Toledo was 13.8 µM; in the assay on WSU-FSCCL, 12 µM; with WSU-NHL, 3.54 µM; in [1], 0.01 to 0.252 µM.

Values taken from US20170348306A1, “METHODS OF TREATING CANCER” (GLAXOSMITHKLINE LLC, priority 2011, published 2017).
